pIC50: −log10 of the molar value.
Tested on: P. falciparum 3D7 growth, pLDH absorbance
Experiment: blood-stage malaria parasite growth potency – strain 3D7, dose response (AID 2305)

Row | Compound | pIC50
1 | COc1cc2c(cc1OCCN1CCC(N3CCCC3)CC1)N(C(=O)/C=C/c1ccccc1Cl)CC2 | 6.18
2 | Cc1[nH]cnc1-c1cccc(NC(=O)c2cc3ccccc3s2)c1 | 6.68
3 | CCC(CC)N1CCN(CC(=O)Nc2ccc([N+](=O)[O-])cc2C(=O)Nc2cccc(OC)c2)CC1 | 6.06
4 | COc1ccc(N2C(=O)c3c(c4ccccc4n3C)C2c2ccccc2O)cc1 (stereo not given) | 6.92
5 | CNC(=O)NC1=NC(C)(C)N(OCCCOc2cc(Cl)c(Cl)cc2Cl)C(N)=N1 | 6.03
6 | CCC(CC)NCc1c(O)ccc2c(CNC(CC)CC)c(O)ccc12 | 6.41
7 | c1ccc(CCNc2ccnc(Nc3ccc4cn[nH]c4c3)n2)cc1 | 6.33
8 | CCCCNC(=O)[C@H](CC1CCCCC1)NC(=O)c1ccc(O)c(-c2cccc(C(F)(F)F)c2)c1 | 6.11
9 | Cc1ccc(OC2CCN(CCCCC3(C)C(=O)Nc4ccccc43)CC2)cc1 (stereo not given) | 6.13
10 | Cc1cccc2[nH]c(-c3ccc(-c4ccc(CNCC5CCCO5)cc4)s3)nc12 (stereo not given) | 6.13
11 | Cc1cc(N(C)C2CCN(C)CC2)nc(Nc2ccc(Br)cc2)n1 | 6.32
12 | NC(N)=NC(=O)Nc1ccc([N+](=O)[O-])c(Cl)c1 | 6.06
13 | COc1ccc(-c2ccc(NC(=O)c3ccc(Cl)cc3)cc2)cc1CN(C)CCO | 6.09
14 | FC(F)(F)c1ccc2nccc(NN=Cc3cccnc3)c2c1 | 6.20
15 | CCC(C)CN1CCN(c2ccc(NC(=O)c3cccs3)cc2)C(C)C1 (stereo not given) | 6.27
16 | OC1(c2ccc(Cl)c(C(F)(F)F)c2)CCN(CCOC2c3ccccc3CSc3ccc(Cl)cc32)CC1 (stereo not given) | 6.10
17 | C(=NNc1nc2ccccc2[nH]1)c1ccccc1OCc1ccccc1 | 6.59
18 | CC(C)(C)C1CCc2onc(C(=O)Nc3cc(Cl)ccc3O)c2C1 (stereo not given) | 6.11
19 | Cc1ccc(F)cc1-c1cc(N2CCCN(C(=O)c3ccc(Br)o3)CC2)ncn1 | 5.84
20 | CC(Cc1ccc(NC(=O)[C@@H](C)NCCc2cccc(Cl)c2)cc1)NCCc1cccc(Cl)c1 (stereo not given in full) | 6.11
21 | CN(C)C(=S)N=Nc1c(O)[nH]c2ccccc12 | 5.98
22 | O=C(Nc1ccc(-c2ccc(-c3nc4ccccc4[nH]3)s2)cc1)Nc1ccc(F)c(F)c1F | 6.72
23 | CCc1cn(CCc2ccccc2)c2ccc(C(=O)N[C@@H](Cc3ccccc3)[C@H](O)CNC(C)(C)CCCC(C)C)cc12 | 6.66
24 | COc1cc2nc(NCCc3ccccc3)nc(NCc3ccc(C#N)cc3)c2cc1OC | 6.82
25 | CCC(Cc1cnc2nc(N)nc(N)c2n1)c1ccc(C(=O)N[C@@H](CCC(=O)O)C(=O)O)cc1 (stereo not given in full) | 7.40

Row | Compound | pIC50
26 | CCN1CCN(c2ccc(Nc3ccnc4ccc(Br)cc34)cc2)CC1 | 6.52
27 | O=C(NCCN1CCCC1)c1cccc(-c2ccc(-c3nc4ccc(F)cc4[nH]3)s2)c1 | 5.82
28 | Cc1cc(N[C@@H](Cc2ccccc2)C(=O)NCc2cccs2)nc(NCC2CCCCC2)n1 | 6.00
29 | CCCN(CCC)C(=S)N=Nc1c(O)[nH]c2ccccc12 | 6.09
30 | COc1ccc(NC(=O)Nc2ccc(-c3ccncc3)c(Cl)c2)cc1N1CCN(C)CC1 | 6.12
31 | CCOC(=O)c1ccc2nc(-c3ccc(C(=O)NCc4ccc(C(C)(C)C)cc4)cc3)[nH]c2c1 | 6.07
32 | CC(C)c1ccc(C=CC(=O)N2CCC(CCN3CCC(c4c[nH]c5ccccc45)CC3)CC2)cc1 | 5.90
33 | CC(=O)Nc1csc(-c2cnc(/C=C(\C)C[C@@H]3OC[C@H](C[C@@H]4O[C@H]4[C@@H](C)[C@H](C)O)[C@@H](O)[C@H]3O)o2)c1 | 6.74
34 | CC(C)(CNC(=O)/C=C/c1ccc(Cl)c(Cl)c1)CNc1cc(=O)c2ccccc2[nH]1 | 6.07
35 | Cc1ccc(S(=O)(=O)NC2CCN(c3ccnc4cc(Cl)ccc34)C2)cc1 (stereo not given) | 6.21
36 | COc1ccc(CN2CCC(CNCC(c3ccccc3)c3ccccc3)CC2)cc1 | 6.64
37 | CCOC(=O)Cc1nc(N)c(C(=O)OCC)[nH]1 | 6.19
38 | CS(=O)(=O)Nc1cccc(-c2cnc3[nH]cc(-c4ccc(C(=O)O)c(F)c4)c3c2)c1 | 6.08
39 | CN1CCC(N(C)C(=O)C=Cc2cn(-c3ccccc3)nc2-c2cc3ccccc3o2)CC1 | 5.87
40 | O=C(/C=C/c1ccc(Cl)c(Cl)c1)NC1CCN(CCNC(=O)c2cccc(Cl)c2)CC1 | 6.26
41 | CCCCc1ccc(C(=O)NC2CCN(C[C@H](O)c3ccnc4ccc(OC)cc34)CC2)cc1 | 6.14
42 | Cc1cc(O)c(-c2cc(C(=O)Nc3cccnc3)[nH]n2)cc1C | 6.11
43 | Cc1ccc(Cn2cnc3cc(C(=O)Nc4ccc(-c5ccc(CN(C)C)cc5)cc4)ccc3c2=O)o1 | 5.90
44 | COc1ccc(C[C@H]2NC[C@H](O)[C@H]2OC(C)=O)cc1 | 6.85
45 | CC(C)(C)c1ccc(CNC(=O)c2ccc(-c3nc4ccc(Cl)cc4[nH]3)cc2)cc1 | 6.09
46 | O=S(=O)(Nc1cc2c(cc1O)CCN(C1CCC1)CC2)c1ccc(-c2ccc(F)cc2)cc1 | 6.38
47 | O=C(NC1CC1)c1ccc(N2CCC(c3ccccc3)CC2)nc1 | 5.95
48 | CCCOc1cccc(C(=O)N[C@@H](Cc2ccccc2)[C@H](O)CNCc2ccccc2OC)c1 | 6.06
49 | CCCc1cc(Cc2cnc(N)nc2N)cc2c1OC(C)C2C (stereo not given) | 6.17
50 | C[C@@H]([C@@H](CCCc1ccc(Cl)cc1)C(=O)N[C@H](C(=O)Nc1cccnc1)C(C)(C)C)N(O)C=O | 6.14

Source: PubChem BioAssay AID2305 (GlaxoSmithKline (GSK), 2010)
